Columns and labels:
[1] = test system: rice; assay: Test C flooded paddy test; format: in vivo, Oryza sativa; conditions: for Plant response rating, Rice: 500 g ai/ha, visual rating after 12 to 14 days
Procedure, shortened: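 Plants were grown to the 1- to 4-leaf stage (2–18 cm) and then treated postemergence, or grown to the 2-leaf stage for the flooded paddy test. They were held in a greenhouse for 12 to 14 days and then scored by eye against controls, where 0 is no effect and 100 is complete control.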

[2] = test system: goosegrass; assay: Test C pre-/postemergence herbicide test; format: in vivo, Eleusine indica
Procedure, shortened: (§1)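 Visual injury scores run from 0 (no effect) to 100 (complete control), assessed relative to untreated controls 12 to 14 days after treatment in the greenhouse. Chemicals were formulated in a non-phytotoxic solvent mixture with surfactant and applied to soil after planting or to emerged plants at the 1- to 4-leaf stage.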

[3] = test system: Surinam grass; assay: Test C pre-/postemergence herbicide test; format: in vivo, Urochloa decumbens
Procedure, shortened: as §1

[4] = test system: soybean; assay: Test C pre-/postemergence herbicide test; format: in vivo, Glycine max
Procedure, shortened: as §1

[5] = test system: rice; assay: Test B pre-/postemergence herbicide test; format: in vivo, Oryza sativa; conditions: preemergence
Procedure, shortened: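 Evaluation is visual, comparing treated with control plants on a scale where 0 means no effect and 100 means full control. Treatments were preemergence, or postemergence on seedlings 2–18 cm tall, and held 13–15 days in the greenhouse.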

[6] = test system: johnsongrass; assay: Test C pre-/postemergence herbicide test; format: in vivo, Sorghum halepense
Procedure, shortened: as §1

[7] = test system: velvetleaf; assay: Test C pre-/postemergence herbicide test; format: in vivo, Abutilon theophrasti
Procedure, shortened: as §1

[8] = test system: kochia; assay: Test C pre-/postemergence herbicide test; format: in vivo, Kochia scoparia
Procedure, shortened: as §1

[9] = test system: large crabgrass; assay: Test C pre-/postemergence herbicide test; format: in vivo, Digitaria sanguinalis
Procedure, shortened: as §1

[10] = test system: pigweed; assay: Test C pre-/postemergence herbicide test; format: in vivo, Amaranthus retroflexus
Procedure, shortened: as §1

[11] = 62 g ai/ha, scale 0 to 100 (0 no effect, 100 complete control)
[12] = 125 g ai/ha, scale of 0 to 100, 0 is no effect, 100 is complete control
[13] = 250 g ai/ha, scale of 0 to 100, 0 is no effect, 100 is complete control
[14] = scale 0 to 100 (0 no effect, 100 complete control)
[15] = 125 g ai/ha, scale 0 (no effect) to 100 (complete control), visual, 12 to 14 days, preemergence
[16] = Postemergence, 500 g ai/ha, scale 0 to 100
[17] = Postemergence, 250 g ai/ha, scale 0 to 100, 0 no effect, 100 complete control
[18] = Preemergence, 500 g ai/ha, scale 0 to 100, 0 no effect, 100 complete control
[19] = postemergence, 125 g ai/ha, scale 0 to 100
[20] = postemergence, 62 g ai/ha, scale 0 to 100
[21] = 125 g ai/ha, 0 to 100 scale, 0 is no effect, 100 is complete control
[22] = 250 g ai/ha, scale 0 to 100 (0 no effect, 100 complete control), visual, 12 to 14 days, preemergence
[23] = 125 g ai/ha, scale 0 to 100 (0 no effect, 100 complete control)
[24] = 62 g ai/ha, preemergence, scale 0 to 100
[25] = 250 g ai/ha, scale 0-100, preemergence
[26] = 500 g ai/ha, scale 0 to 100 (0 no effect, 100 complete control), visual, 12 to 14 days, preemergence
[27] = 125 g ai/ha, 0 = no effect, 100 = complete control
[28] = 500 g ai/ha, visual rating, 0 = no effect, 100 = complete control

## CC(=NO)c1cccc(NC(=O)c2cc(C(C)(C)C)nn2CCF)c1 [Compound 115]
[1]; [11]
  Rice plant response rating: 55
[1]; [12]
  Rice plant response rating: 65
[1]; [13]
  Rice plant response rating: 75
[1]; [14]
  Plant response rating, Rice: 75
[2]; 62 g ai/ha, preemergence
  Plant response rating (0 = no effect, 100 = complete control), Goosegrass: 70
[2]; [15]
  Plant response rating, Goosegrass: 80
[2]; [16]
  Goosegrass plant response rating: 70
[2]; [17]
  Plant response rating, Goosegrass: 70
[2]; [18]
  Goosegrass plant response rating: 100
[2]; [19]
  Plant response rating, Goosegrass: 60
[2]; [20]
  Plant response rating, Goosegrass: 40
[3]; 62 g ai/ha, preemergence
  Plant response rating (0 = no effect, 100 = complete control), Surinam Grass: 20
[3]; [15]
  Plant response rating, Surinam Grass: 40
[3]; [16]
  Surinam Grass plant response rating: 60
[3]; [17]
  Plant response rating, Surinam Grass: 60
[3]; [18]
  Surinam Grass plant response rating: 90
[3]; [19]
  Plant response rating, Surinam Grass: 40
[3]; [20]
  Plant response rating, Surinam Grass: 30
[4]; 62 g ai/ha, preemergence
  Plant response rating (0 = no effect, 100 = complete control), Soybean: 0
[4]; [15]
  Plant response rating, Soybean: 0
[4]; [16]
  Soybean plant response rating: 90
[4]; [17]
  Plant response rating, Soybean: 80
[4]; [18]
  Soybean plant response rating: 0
[4]; [19]
  Plant response rating, Soybean: 70
[4]; [20]
  Plant response rating, Soybean: 60
[5]; [21]
  Plant response rating, Rice: 0
[6]; 62 g ai/ha, preemergence
  Plant response rating (0 = no effect, 100 = complete control), Johnsongrass: 70
[6]; [15]
  Plant response rating, Johnsongrass: 100
[6]; [16]
  Johnsongrass plant response rating: 100
[6]; [17]
  Plant response rating, Johnsongrass: 80
[6]; [18]
  Johnsongrass plant response rating: 100
[6]; [19]
  Plant response rating, Johnsongrass: 50
[6]; [20]
  Plant response rating, Johnsongrass: 30
[7]; [15]
  Plant response rating, Velvetleaf: 100
[7]; [16]
  Velvetleaf plant response rating: 90
[7]; [17]
  Plant response rating, Velvetleaf: 90
[7]; [18]
  Velvetleaf plant response rating: 100
[7]; [19]
  Plant response rating, Velvetleaf: 90
[7]; [20]
  Plant response rating, Velvetleaf: 60
[8]; 62 g ai/ha, preemergence
  Plant response rating (0 = no effect, 100 = complete control), Kochia: 100
[8]; [15]
  Plant response rating, Kochia: 100
[8]; [16]
  Kochia plant response rating: 90
[8]; [17]
  Plant response rating, Kochia: 90
[8]; [18]
  Kochia plant response rating: 100
[8]; [19]
  Plant response rating, Kochia: 90
[8]; [20]
  Plant response rating, Kochia: 80
[9]; 62 g ai/ha, preemergence
  Plant response rating (0 = no effect, 100 = complete control), Crabgrass, Large: 100
[9]; [15]
  Plant response rating, Crabgrass, Large: 100
[9]; [22]
  Plant response rating, Crabgrass, Large: 100
[9]; [16]
  Crabgrass, Large plant response rating: 90
[9]; [17]
  Plant response rating, Crabgrass, Large: 70
[9]; [18]
  Crabgrass, Large plant response rating: 100
[9]; [19]
  Plant response rating, Crabgrass, Large: 70
[9]; [20]
  Plant response rating, Crabgrass, Large: 60
[10]; 62 g ai/ha, preemergence
  Plant response rating (0 = no effect, 100 = complete control), Pigweed: 100
[10]; [15]
  Plant response rating, Pigweed: 100
[10]; [16]
  Pigweed plant response rating: 100
[10]; [17]
  Plant response rating, Pigweed: 100
[10]; [18]
  Pigweed plant response rating: 100
[10]; [19]
  Plant response rating, Pigweed: 100
[10]; [20]
  Plant response rating, Pigweed: 100

## CCn1nc(C(C)(C)C)cc1C(=S)Nc1cc(C(=S)N(C)C)ccc1F [Compound 305]
[1]; 62 g ai/ha, scale 0 to 100
  Rice plant response rating: 75
[1]; [23]
  Rice plant response rating: 80
[1]; [13]
  Rice plant response rating: 85
[1]; [14]
  Plant response rating, Rice: 85
[2]; [24]
  Plant response rating, Goosegrass: 80
[2]; [15]
  Plant response rating, Goosegrass: 85
[2]; [25]
  Plant response rating, Goosegrass: 95
[2]; [26]
  Plant response rating, Goosegrass: 95
[3]; [24]
  Plant response rating, Surinam Grass: 50
[3]; [25]
  Plant response rating, Surinam Grass: 60
[3]; [26]
  Plant response rating, Surinam Grass: 60
[4]; [24]
  Plant response rating, Soybean: 0
[4]; [25]
  Plant response rating, Soybean: 90
[4]; [26]
  Plant response rating, Soybean: 100
[5]; [27]
  Rice plant response rating (0 to 100 scale): 70
[5]; [28]
  Plant response rating, Rice: 80
[6]; [24]
  Plant response rating, Johnsongrass: 65
[6]; [15]
  Plant response rating, Johnsongrass: 90
[6]; [25]
  Plant response rating, Johnsongrass: 95
[6]; [26]
  Plant response rating, Johnsongrass: 95
[7]; [24]
  Plant response rating, Velvetleaf: 40
[7]; [25]
  Plant response rating, Velvetleaf: 100
[7]; [26]
  Plant response rating, Velvetleaf: 100
[8]; [24]
  Plant response rating, Kochia: 100
[8]; [15]
  Plant response rating, Kochia: 100
[8]; [25]
  Plant response rating, Kochia: 100
[8]; [26]
  Plant response rating, Kochia: 100
[9]; [24]
  Plant response rating, Crabgrass, Large: 70
[9]; [15]
  Plant response rating, Crabgrass, Large: 100
[9]; [25]
  Plant response rating, Crabgrass, Large: 100
[9]; [26]
  Plant response rating, Crabgrass, Large: 100
[10]; [24]
  Plant response rating, Pigweed: 100
[10]; [15]
  Plant response rating, Pigweed: 100
[10]; [25]
  Plant response rating, Pigweed: 100
[10]; [26]
  Plant response rating, Pigweed: 100

## CCN(C)C(=O)c1ccc(F)c(NC(=O)C2CC(C(C)(C)C)=NN2CC)c1 (racemic) [Compound 307]
[1]; 62 g ai/ha, scale 0 to 100
  Rice plant response rating: 55
[1]; [23]
  Rice plant response rating: 60
[1]; [13]
  Rice plant response rating: 65
[1]; [14]
  Plant response rating, Rice: 80
[2]; [24]
  Plant response rating, Goosegrass: 90
[2]; [15]
  Plant response rating, Goosegrass: 95
[2]; [25]
  Plant response rating, Goosegrass: 100
[2]; [26]
  Plant response rating, Goosegrass: 100
[3]; [24]
  Plant response rating, Surinam Grass: 70
[3]; [25]
  Plant response rating, Surinam Grass: 90
[3]; [26]
  Plant response rating, Surinam Grass: 90
[4]; [24]
  Plant response rating, Soybean: 40
[4]; [25]
  Plant response rating, Soybean: 80
[4]; [26]
  Plant response rating, Soybean: 100
[5]; [27]
  Rice plant response rating (0 to 100 scale): 80
[5]; [28]
  Plant response rating, Rice: 90
[6]; [24]
  Plant response rating, Johnsongrass: 60
[6]; [15]
  Plant response rating, Johnsongrass: 80
[6]; [25]
  Plant response rating, Johnsongrass: 90
[6]; [26]
  Plant response rating, Johnsongrass: 100
[7]; [24]
  Plant response rating, Velvetleaf: 70
[7]; [25]
  Plant response rating, Velvetleaf: 100
[7]; [26]
  Plant response rating, Velvetleaf: 100
[8]; [24]
  Plant response rating, Kochia: 100
[8]; [15]
  Plant response rating, Kochia: 100
[8]; [25]
  Plant response rating, Kochia: 100
[8]; [26]
  Plant response rating, Kochia: 100
[9]; [24]
  Plant response rating, Crabgrass, Large: 80
[9]; [15]
  Plant response rating, Crabgrass, Large: 100
[9]; [25]
  Plant response rating, Crabgrass, Large: 100
[9]; [26]
  Plant response rating, Crabgrass, Large: 100
[10]; [24]
  Plant response rating, Pigweed: 100
[10]; [15]
  Plant response rating, Pigweed: 100
[10]; [25]
  Plant response rating, Pigweed: 100
[10]; [26]
  Plant response rating, Pigweed: 100

## CCCN1CCc2c(NC(=O)c3cc(C(C)(C)C)nn3CC)cccc2C1=O [Compound 65]
[1]; [11]
  Rice plant response rating: 0
[1]; [12]
  Rice plant response rating: 0
[1]; [13]
  Rice plant response rating: 25
[1]; [14]
  Plant response rating, Rice: 30
[2]; 62 g ai/ha, preemergence
  Plant response rating (0 = no effect, 100 = complete control), Goosegrass: 0
[2]; [15]
  Plant response rating, Goosegrass: 30
[2]; [18]
  Goosegrass plant response rating: 80
[3]; 62 g ai/ha, preemergence
  Plant response rating (0 = no effect, 100 = complete control), Surinam Grass: 0
[3]; [15]
  Plant response rating, Surinam Grass: 0
[3]; [18]
  Surinam Grass plant response rating: 50
[4]; 62 g ai/ha, preemergence
  Plant response rating (0 = no effect, 100 = complete control), Soybean: 0
[4]; [15]
  Plant response rating, Soybean: 0
[4]; [18]
  Soybean plant response rating: 20
[5]; [21]
  Plant response rating, Rice: 10
[6]; 62 g ai/ha, preemergence
  Plant response rating (0 = no effect, 100 = complete control), Johnsongrass: 10
[6]; [15]
  Plant response rating, Johnsongrass: 40
[6]; [18]
  Johnsongrass plant response rating: 100
[7]; [15]
  Plant response rating, Velvetleaf: 0
[7]; [18]
  Velvetleaf plant response rating: 60
[8]; 62 g ai/ha, preemergence
  Plant response rating (0 = no effect, 100 = complete control), Kochia: 10
[8]; [15]
  Plant response rating, Kochia: 70
[8]; [18]
  Kochia plant response rating: 90
[9]; 62 g ai/ha, preemergence
  Plant response rating (0 = no effect, 100 = complete control), Crabgrass, Large: 50
[9]; [15]
  Plant response rating, Crabgrass, Large: 50
[9]; [22]
  Plant response rating, Crabgrass, Large: 80
[9]; [18]
  Crabgrass, Large plant response rating: 100
[10]; 62 g ai/ha, preemergence
  Plant response rating (0 = no effect, 100 = complete control), Pigweed: 70
[10]; [15]
  Plant response rating, Pigweed: 100
[10]; [18]
  Pigweed plant response rating: 100
